The values that follow come from US20250339631A1, “CONTROLLED RELEASE OF […] A SOURCE MATERIAL STORED OVER TIME” (Syqe Medical Ltd., priority 2022, published 2025).

Data set [1] is described as follows: Long-term stability of ground cannabis packaged in Syqe cartridges at room temperature. The data set is classed as physicochemical. The settings on record: 25° C.±2° C., RH 60%±5%, baseline to 24 months; one-way ANOVA. The procedure:
(§1) In some embodiments, once cartridges are produced, they are stored, distributed and used at RT. In order to assess the shelf life of such cartridges, a long-term stability study was performed, during which cartridges were stored at 25° C.±2° C. (RH 60%±5%) in a calibrated and certified stability chamber (Memmert Constant climate chamber HPP260). 9, 6, 9, 8, 7, 4 and 4 separate growing batches were tested at baseline and after 3, 6, 9, 12, 18 and 24 months, respectively. At each time point samples of the ground inflorescence within the cartridges were analyzed for LOD and for the amount (mg) of each of the major phytocannabinoids (CBDA, CBD, CBGA, CBN, THCA and THC). Of the same batches, THC aerosolized by the Syqe inhaler was analyzed at baseline and at 6, 9, 18 and 24 months.
(§2) Analysis of cannabis inflorescences for the main phytocannabinoids (CBDA, CBD, CBGA, CBN, THCA and THC) was performed as follows: 100 mg of ground Cannabis inflorescences were weighed in duplicate from one container and extracted with 25 mL methanol then sonicated for 40 min and centrifuged at 3000 rpm for 5 min. All samples were filtered through a 0.22 μm PP filter vail prior to analysis. The dilution and quantitation were preformed corresponding to calibration curves. The main six phytocannabinoids were analyzed by ultra-high-performance liquid chromatography (UHPLC: […]) system with a refrigerated auto-sampler, thermostatic column oven and ultraviolet detector, Waters ACQUITY UPLC H-Class. Chromatographic separation was achieved using UPLC column Waters Acquity C18, 1.7 μm particles, 2.1×150 mm maintained at 30° C. The phytocannabinoids were separated using a gradient elution with mobile phases of 0.1% (v/v) formic acid in double-distilled water (phase A) and acetonitrile (phase B), respectively. A constant flow rate of 0.4 mL/min was employed throughout. The gradient profile varied from 70% to 100% B in 10.5 min, held for 0.5 min in these conditions and then returned to the initial conditions.
(§3) For THC and CBD, the concentrations of the acid and its neutral counterpart were summed and reported as the total content. For example, the concentration of total THC […] was calculated as: Total THC=THCA * 0.877+THC, with 0.877 being the molar ratio between the two compounds that corrects for a change in the mass of THCA as a result of the loss of CO2 (decarboxylation). This is shown in FIG. 7A: “U-HPLC analysis of the Bedrocan cultivar”.
(§4) R software (V.1.1.463) with tidyverse (17) package was used to analyze changes in outcome measures by one way ANOVA test, using Fisher's exact test analysis. All analyses were followed by a Tukey post-hoc test for multiple comparison. Data are presented as Mean±95% confidence interval (CI). Differences were considered significant at the p<0.05 level.

The nature of data set [2]: Stability of ground MC powder stored under refrigeration, pre-packaging. The format is physicochemical. The settings on record: 5° C.±2° C., baseline to 3 months post grinding; one-way ANOVA. The procedure: In the described experiment, Bedrocan strain MC powder was stored at 5° C.±2° C. with up to 12% relative humidity (RH) in a polypropylene container, sealed in an aluminum foil pouch (Oliver-Tolas Healthcare Packaging B.V.; Venray, Netherlands). In order to assess its stability during the handling and hold time, samples were taken from three separate growing batches and assayed at baseline and at 1, 2 and 3 months post grinding. Each sample was assayed for loss on drying (LOD), and of the concentrations of the major phytocannabinoids (CBDA, CBD, CBGA, CBN, THCA and THC).
as §2, §3, §4

Data set [3] is described as follows: Stability of ground cannabis in Syqe cartridges stored at 30° C. The data set is classed as physicochemical. The settings on record: 30° C.±2° C., 65% RH, baseline to 6 months; one-way ANOVA. Here is the method: Additionally, to assess the effects of a warmer temperature on MC, Syqe cartridges were stored post-production at an elevated temperature and humidity of 30° C.±2° C. (65% RH+5% RH). Three different growing batches were analyzed at baseline and at 1, 2, 4 and 6 months of storage.
as §2, §3, §4

Data set [4] is described as follows: Vaporization of THC and terpenes from ground cannabis heated to target temperatures. The data set is classed as physicochemical. The settings on record: 135 mg ground cannabis; vaporized THC measured in the aerosol; targets 60-150° C. The procedure:
The vaporization plots in FIGS. 6A-B show results of an experiment performed by the inventors in which samples of 135 mg of ground cannabis were heated to several target temperatures, including 60° C., 70° C., 80° C., 90° C., 100° C., 110° C., 120° C., 130° C., 140° C. and 150° C. At each of the target temperatures, vaporized THC was measured in the aerosol. At each of the target temperatures, the residual mass of ground cannabis was analyzed using Gas Chromatography —Mass Spectrometry (GC/MS) to determine existence of terpenes, such as: Linalool, Isopulegol, Geraniol, Caryophyllene, 26.82 Humulene<alpha->and Nerolidol. The total terpenes residue (as remaining in the ground cannabis) is indicated by the dashed line in FIG. 6A. Based on the residual mass of terpenes, the released (vaporized) amount terpenes was calculated, by subtracting the measured residual mass from a respective reference mass.

Data set [5] can be described thus: THC dose aerosolized by the Syqe inhaler from stored cartridges. The format is physicochemical. The settings on record: inhaler set to 500 μg THC, Mean±95% CI. The procedure:
Methods: MC inflorescences were ground to a fine powder and the concentrations of the major phytocannabinoids therein were analyzed at different time points using ultra-high performance liquid chromatography (U-HPLC). Storage was done under different temperature and humidity conditions, before or after being packaged in Syqe cartridges. MC aerosolized by a the Syqe inhaler using Syqe cartridges stored for up to 2 years at 25° C. was analyzed for THC doses.
as §1
In some embodiments, the Syqe inhaler is preprogrammed with several distinct heating protocols. […]

The conditions of data set [6]: after four years, room temperature (22 C), light or darkness (storage conditions A and B); cited from earlier work.

Take `CCCCCc1cc2c(c(O)c1C(=O)O)[C@@H]1C=C(C)CC[C@H]1C(C)(C)O2` (relative stereo) [THCA, (-)-Δ^9-trans-tetrahydrocannabinolic acid]: the “change in phytocannabinoid amount” value in data set [1] and in data set [3] was “decreased significantly” in each case. Besides, the “change in phytocannabinoid concentration during the study period” value in data set [2] is given as “no significant change”.

In the case of `C=C(C)[C@@H]1CCC(C)=C[C@H]1c1c(O)cc(CCCCC)c(C(=O)O)c1O` [CBDA, cannabidiolic acid], the “change in phytocannabinoid amount” value in data set [1] is on record as “no significant change”. Further, the “change in phytocannabinoid concentration during the study period” value in data set [2] is “no significant change”.

`CCCCCc1cc(O)c(C/C=C(\C)CCC=C(C)C)c(O)c1C(=O)O` [CBGA, cannabigerolic acid]: the “change in phytocannabinoid amount” value in data set [1] and in data set [3] was “decreased significantly” in each case. Moreover, the “change in phytocannabinoid concentration during the study period” value in data set [2] is on record as “no significant change”.

As to `CCCCCc1cc(O)c2c(c1)OC(C)(C)c1ccc(C)cc1-2` [CBN, Cannabinol], the “change in phytocannabinoid amount” value in data set [1] and in data set [3] was “increased significantly” each time. Further, the “change in phytocannabinoid concentration during the study period” value in data set [2] is “no significant change”.

For `CCCCCc1cc(O)c2c(c1)OC(C)(C)[C@@H]1CCC(C)=C[C@@H]21` [THC, (-)-Δ^9-trans-tetrahydrocannabinol], the “target temperature at which release started” value in data set [4] was 130 degrees C. The “change in phytocannabinoid amount” value in data set [1] and in data set [3] was “increased significantly” in each case. The “change in phytocannabinoid concentration during the study period” value in data set [2] is “no significant change”. Further, the entries for the “aerosolized THC dose” value in data set [5] (6 months at 25° C.) and in data set [5] (BL) were 486.30 ± 50.56 µg and 484.76 ± 31.28 µg, respectively. Besides, in data set [6], the THC degraded is around 100%.
